Test results taken from patent US8735575B2, “Phenoxazine derivatives and methods of use thereof” (Washington University, priority 2010, dated 2014).
Like-named read-outs stand apart in the source and are kept apart here. Values belong to the compound of their own block, whether it stands above or below them.

Tests used:
neuritic plaques = neuritic plaques (Homo sapiens, UniProt P05067); assay: In situ binding assay on neuritic plaques in fixed brain sections of Tg2576 mice; set-up: species or system mouse (Tg2576); settings: for Kd: in situ, Tg2576 brain sections, read-out: Binding affinity in situ, KD (nM) on Plaques
Description: (§1) Tg2576 mice are a well characterized mouse model of AD and CAA. They develop congophilic Aβ aggregates within neuritic plaques and leptomeningeal and cortical penetrating arteries at 11 months of age (Hsiao et al., 1996; Kawarabayashi et al., 2001; Fryer et al., 2005; Han et al., 2008).
(§2) The Ki values for CAA vs. neuritic plaques will be calculated utilizing the fluorescent amyloid-ligand methoxy-X34 and fluorescent microscopic method. […] Tissue sections (3 sections per reaction) will be then mounted and coverslipped. Photographs of methoxy-X34 binding images will be taken using a Nikon fluorescent microscope. The fluorescent intensity on cerebral amyloid deposits and neuritic plaques will be separately quantified using Image J software. Finally, Ki values will be calculated by plotting % bound vs. log concentrations of competitors followed by non-linear regression using the GraphPad Prism software. The maximum binding will be obtained from the methoxy-X34 intensity in the absence of competitors, while non-specific binding will be detected by the fluorescent intensity in brain tissues incubated without methoxy-X34.
(§3) Tg2576 mice or littermate controls at 15 months of age will be perfused with phosphatebuffered saline (PBS) for 5 min. Brains will be removed, fixed in 4% paraformaldehyde, and preserved in 30% glucose-PBS solution at 4° C. Brains will be coronally sectioned using a microtome and kept in cryoprotectant solution at −20° C. To label amyloid deposits, brain sections (3 sections per reaction) will be permeabilized with PBS containing 0.25% Triton X-100 for 20 min at room temperature, followed by incubation with 1 μM methoxy-X34 in the presence or absence of competitors at various concentrations (10-9-10-6 M). Sections will be subjected to fluorescent microscopy using a Nikon Eclipse C600 microscope. The fluorescent intensity of methoxy-X34 in vessels and neuritic plaques will be quantified using the ImageJ software. The binding affinity (Ki) will be calculated using the GraphPad Prism software.

physchem = format: physicochemical
Method: (§4) The logPoct value is widely used in quantitative structure-activity relationship (QSAR) studies and rational drug design as a measure of molecular hydrophobicity. Hydrophobicity affects drug absorption, bioavailability, hydrophobic drug-receptor interactions, metabolism of molecules, and their toxicity. […] The mixture will be incubated with agitation for 30 min until ionic and non-ionic forms of test compound reach equilibrium. Two layers will be separated by centrifugation. Test compound's concentrations in octanol and water layers will be determined by UV/VIS spectrophotometry. The logPoct value will be calculated from log(concentration in n-octanol fraction/concentration in water fraction). Experiments will be repeated at least 3 times with triplicated samples.

CAA [1] = target: T1, CAA (Homo sapiens, UniProt P05067); assay: In situ binding assay on CAA in fixed brain sections of Tg2576 mice; set-up: species or system mouse (Tg2576); Binding affinity in situ, Bmax on CAA: unit not given here; settings: for Kd: read-out: Binding affinity in situ, KD (nM) on CAA
CAA [2] = target: T1, CAA; assay: as above; set-up: species or system mouse (Tg2576)
Description: as §1, §2, §3

[3] = normal mice, cited from earlier work
CAA [4] = target: T1, CAA; assay: Binding affinities for CAA on isolated vessels determined by fluorescent binding; settings: read-out: Binding affinity (nM) Ki
Method: The isolation of cerebral vessels for biochemical analysis will be performed as described (78, 98). […] After the cerebellum is removed, the brain will be homogenized in fivefold excess of vessel buffer. An equal volume of 26% dextran will be added, and the tissue will be centrifuged at 6200×g for 30 min at 4° C. The resulting vessels form a pellet, whereas the parenchymal “vessel-free” material forms a solid, compact disc at the top of the solution. The […] will be resuspended in vessel buffer and passed over a 40-μm nylon mesh to capture vessels. Vessel and parenchymal material will be lysed in 5 M guanidine, 50 mM Tris, pH 8, with protease inhibitor cocktail (Roche) for 3 hr.

CAA vs. neuritic plaques [5] = assay: Fluorescent co-staining of fixed brain sections of Tg2576 mice; set-up: species or system mouse (Tg2576); settings: aged Tg2576 mice, FIG. 1
Description: as §1

CAA vs. neuritic plaques [6] = assay: Staining of paraffin-embedded cortical sections of a human AD patient; settings: autopsied AD patient cortical sections, FIG. 3
Description: as §1

[7] = cited from earlier work; for Lipophilicity Poct: data from the previous report (Klunk et al. 2002)
[8] = tested on: cerebrovascular Aβ deposits; assay: In vivo live imaging of CAA amyloid deposits through closed cranial window; set-up: species or system mouse (Tg2576); settings: 16-month old Tg2576 mice, resorufin 2 μM
Method: FIG. 4 depicts in vivo live imaging of CAA amyloid deposits through closed cranial window. A,B. Closed cranial window was prepared on the right parietal bone of 16-month-old Tg2576 mice. Leptomeningeal arterioles (B) were subjected to live imaging using a fluorescent microscope. […] Scale bars: in C-E: 250 μm, in E: 100 μm.
as §4

Compound: C#COc1ccc2nc3ccc(=O)cc-3oc2c1 [WC-5-1]
Kd (neuritic plaques): > 4000 nM | Lipophilicity Poct (physchem): 2.407 | Binding affinity in situ, Bmax on CAA (CAA [1]): 485 | Kd (CAA [1]): 173 nM

Compound: phenyl-resorufin
binding affinity for CAA deposits, in words (CAA [2]): low nanomolar range | lipophilicity, in words (physchem): moderate lipophilicity

Compound: CCCCCOc1ccc2nc3ccc(=O)cc-3oc2c1 [Pentoxy-resorufin]
logP (physchem): 2.34

Compound: O=c1ccc2nc3ccc(OCCBr)cc3oc-2c1 [WC-5-9]
logP (physchem): 2.2

Compound: CCOc1ccc2nc3ccc(=O)cc-3oc2c1 [ethyl-resorufin]
binding affinity for CAA deposits, in words (CAA [2]): low nanomolar range | lipophilicity, in words (physchem): moderate lipophilicity

Compound: [11CH3]Nc1ccc(-c2nc3ccc(O)cc3s2)cc1 [[11C]PIB]
brain uptake at 2 min after injection ([3]; 2 min): 3.2 % ID/g | brain level after washout at 60 min ([3]; 60 min): 0.21 % ID/g | fraction in the brain cleared within 60 min ([3]; within 60 min): 93%

Compound: CCOc1ccc2nc3ccc(=O)cc-3oc2c1 [Ethoxy-resorufin]
logP (physchem): 2.35 | Ki (CAA [4]): 262 nM | Binding affinity in situ, Bmax on CAA (CAA [1]): 107 | Kd (CAA [1]): 247 nM

Compound: [11CH3]Oc1ccc(C=Cc2ccc(C=Cc3ccc(O)c(C(=O)O)c3)cc2)cc1C(=O)O [Methoxy-X34]
Lipophilicity Poct [7]: ^b0.19

Compound: O=c1ccc2nc3ccc(OCCF)cc3oc-2c1 [WC-5-2]
Kd (neuritic plaques): > 4000 nM | Lipophilicity Poct (physchem): 2.774 | Binding affinity in situ, Bmax on CAA (CAA [1]): 869 | Kd (CAA [1]): 235 nM

Compound: COc1cc(/C=C/c2ccc(O)cc2)ccc1/C=C/c1ccc(O)cc1 [Methoxy-X04, reference compound]
fluorescent labeling in live mice, topical application through cranial window [8]: present in both cerebral arteries and parenchymal neuritic plaques | Lipophilicity Poct [7]: ^b2.6

Compound: CC(=O)Oc1ccc2nc3ccc(=O)cc-3oc2c1 [Resorufin acetate]
logP (physchem): 2.79

Compound: [11CH3]Oc1cc(C=Cc2ccc(O)cc2)ccc1C=Cc1ccc(O)cc1 [[11C]methoxy-X04]
logPoct ([7]; cited study (96)): 2.6

Compound: methoxyphenyl-resorufin
binding affinity for CAA deposits, in words (CAA [2]): low nanomolar range | lipophilicity, in words (physchem): moderate lipophilicity

More lines, main results first:

logP (physchem): 3.42 | Binding affinity in situ, Bmax on CAA (CAA [1]): 1304
Compound: O=c1ccc2nc3ccc(OCc4ccc(OCCF)cc4)cc3oc-2c1 [WC-5-7]

logP (physchem): 2.21 | Binding affinity in situ, Bmax on CAA (CAA [1]): 410
Compound: O=c1ccc2nc3ccc(OCc4ccccc4)cc3oc-2c1 [Benzyloxy-resorufin]

Lipophilicity Poct (physchem; 30 min): >4.89??
Compound: O=c1ccc2nc3ccc(OCc4ccc(I)cc4)cc3oc-2c1 [WC-5-31]

logP (physchem): 2.04 | Binding affinity in situ, Bmax on CAA (CAA [1]): 527
Compound: O=c1ccc2nc3ccc(OCc4cn(CCF)nn4)cc3oc-2c1 [WC-5-3]

binding to neuritic plaques (neuritic plaques; in situ binding assay at a concentration of 160 μM): negligible | logP (physchem): 0.387 | Binding affinity in situ, Bmax on CAA (CAA [1]): 1523/ 885
Compound: O=c1ccc2nc3ccc(O)cc3oc-2c1 [Resorufin]
staining of CAA vs. neuritic plaques (CAA vs. neuritic plaques [5]): CAA>>>neuritic plaques | staining of 3D6-positive arterioles vs. neuritic plaques (CAA vs. neuritic plaques [6]): prominent in 3D6-positive cerebral arterioles but was rarely seen in 3D6-positive neuritic plaques

logP (physchem): 2.97 | Binding affinity in situ, Bmax on CAA (CAA [1]): 699
Compound: COc1cccc(COc2ccc3nc4ccc(=O)cc-4oc3c2)c1 [WC-5-4]

logP (physchem): 1.91 | Binding affinity in situ, Bmax on CAA (CAA [1]): 135
Compound: COc1ccc(COc2ccc3nc4ccc(=O)cc-4oc3c2)cc1 [WC-5-5]

logP (physchem): 2.09
Compound: CC(=O)OCCOc1ccc2nc3ccc(=O)cc-3oc2c1 [WC-5-8]

logP (physchem): 1.95
Compound: COc1ccc2nc3ccc(=O)cc-3oc2c1 [Methoxy-resorufin]
